Reference: US20260152527A1, “NOVEL MELANOCORTIN ANALOGS” (priority 2022, published 2026)
Like-named read-outs stand apart in the source and are kept apart here. Positions of bridges follow the written chain, without caps; N, C: chain ends. Non-standard residues stand in square brackets, D forms with d. Residues, ends and D or L forms follow the SMILES beside them. Triazole bridges read from a SMILES are 1,4-linked. *: point of attachment. Benzoyl(3,5-(OH)2) = O=C(c1cc(O)cc(O)c1)*; Lys(N3) = [N-]=[N+]=NCCCC[C@H](N)C(=O)O; dPhe(4-F) = N[C@H](Cc1ccc(F)cc1)C(=O)O; Nle = CCCC[C@H](N)C(=O)O; Pra = C#CC[C@H](N)C(=O)O

How the values were obtained:
human recombinant MC1R = molecular target: T1, human recombinant MC1R (Homo sapiens, UniProt Q01726); experiment: cyclic AMP (cAMP) functional assay, MC1R stable cell line (CHO-K1); type: cell-based;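 also: cells with test compound for 60 min at room temperature in buffer containing IBMX, then cAMP quantified by Eu-cAMP tracer and ULight anti-cAMP detection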
T1 construct: host or cells: CHO-K1
T1 sequence (Q01726 whole entry): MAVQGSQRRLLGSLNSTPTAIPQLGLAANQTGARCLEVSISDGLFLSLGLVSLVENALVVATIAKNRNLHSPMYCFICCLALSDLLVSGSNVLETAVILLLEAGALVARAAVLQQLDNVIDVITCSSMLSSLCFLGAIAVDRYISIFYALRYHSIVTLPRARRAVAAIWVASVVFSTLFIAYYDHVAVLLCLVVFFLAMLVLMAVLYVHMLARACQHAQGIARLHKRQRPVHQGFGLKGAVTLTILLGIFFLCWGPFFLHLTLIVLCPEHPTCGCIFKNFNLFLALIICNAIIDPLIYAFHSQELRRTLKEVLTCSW
Method: The cyclic AMP (cAMP) functional assay was performed on a human recombinant MC1R stable cell line (CHO-K1, GenScript). The cells were cultured at 37° C. and 5% CO2 with culture medium (90% Ham's F-12K (Kaighn's)+10% FBS+400 μg/mL G418). […] Then, 100 nL of compounds were transferred to the assay plate by the Echo machine. Cells were washed with PBS and then detached by incubation with 0.05% (w/v) Trypsin EDTA at 37° C. for 2 to 5 mins. Cells were collected with stimulation buffer (1×HBSS with 5 mM HEPES+0.2 mM IBMX+0.1% BSA) and 10 ul of cells (the density of 2,500 cells/well) solution was transferred to assay plate, centrifuged at 600 rpm for 3 min and then incubated with compounds at room temperature for 60 min. After that, 5 μL 4×Eu-cAMP tracer solution and 5 μL 4×ULight™-anti-cAMP solution was added into the cells, centrifuged at 600 rpm for 3 min and incubated for 60 min. The cAMP signal was detected with Envision® Multimode Plate Reader (PerkinElmer).

[1] = In vivo topical administration pharmacokinetics of K173, rabbit (aqueous humor, cornea); conditions: for level at 0.5 h / level at 1 h / level at 2 h / level at 4 h / level at 8 h / level at 24 h: aqueous humor, topical or ocular; for level at 0.5 h: 30 Min post-last dose; for level at 1 h: 1 hr post-last dose; for level at 2 h: 2 hr post-last dose; for level at 4 h: 4 hr post-last dose; for level at 8 h: 8 hr post-last dose; for level at 24 h: 24 hr post-last dose
Method: Animals were not tranquilized for the examinations.
The remaining ocular tissues were discarded. Ocular samples were stored −80° C.
The rabbit efficacy model can be used to determine if QD or BID dosing is optimal for clinical utility.

[2] = system: corneal edema following Descemetorhexis without Endothethelial Keratoplasty (DWEK) surgery; type: in vivo; conditions: rabbit
Method: To evaluate the efficacy of a peptide formulation in reducing corneal edema following Descemetorhexis without Endothethelial Keratoplasty (DWEK) surgery a study in rabbits was undertaken. […] A Table summarizing the parameters regarding the study is provided in FIGS. 5A-5B and a schematic exemplifying the timeline of the study is provided in FIG. 6.
Treatment was administered once (QD) or twice daily (BID) with approximately 6-8 hours between each BID dose for 28 days.
The rabbits were subjected to a surgical procedure prior to administering topical treatment. The animals received buprenorphine (0.01-0.05 mg/kg SC) and were sedated immediately prior to the procedure with ketamine/xylazine cocktail (20-50/4-10 mg/kg IM). Aseptic precautions were taken for the surgical procedure. […] Sterile eyewash was then used to irrigate the ocular surface of the left eye. […] The animal's corneal epithelium was marked with a circular ring (5 mm) to create a template for resection of the host tissue. […] Descemet's membrane was scored peripherally using a reverse Terry-Sinskey hook, and then Descemet's membrane was peeled from the overlying stroma. Descemet's membrane was removed using forceps. Viscoelastic was removed by Irrigation Aspiration (IA) using balanced salt saline (BSS). […]
In addition, tonometry was performed by a veterinary ophthalmologist or a trained technician. Intraocular pressure (IOP) was measured in both eyes of all animals at days 2, 4, 8, 15, 22, and 29. […] Six consecutive measurements were obtained and the average IOP shown on the display was recorded. Three independent measurements were obtained and recorded for each eye.
Pachymetry was also performed by a veterinary ophthalmologist or trained technician on days 2, 4, 8, 15, 22, and 29. Corneal thickness was measured in both eyes using an ultrasonic pachymeter. […]
Optical coherence tomography (OS only) was also measured in the animals. […]

[3] = rabbit
From the text: To evaluate the effects of the peptide formulations following topical administration and subconjunctival injection a study in rabbits was undertaken. Animals were acclimated to the study and, upon completion of the acclimation period, each animal was physically examined for determination of suitability for study participation. Animals determined to be in good health were randomized into study groups to achieve averaged mean body weight in each group. (N=24; 3 animals per study group) Animals will be uniquely identified by corresponding cage card number and ear tag.
For topical ocular dosing the designated peptide formulations (35 L) were administered to the eye of each animal using a calibrated pipette. With the animal manually restrained, the upper eyelid of the eye was gently elevated to expose the cornea. Treatment was then be applied to the cornea without contacting the eye with the pipette tip. One topical drop was applied per eye for four days. Tissue collection (aqueous humor) occurred 30 minutes after last dose.
A veterinary ophthalmologist performed complete ocular examinations using a slit lamp biomicroscope and indirect ophthalmoscope to evaluate ocular surface morphology and anterior and posterior segment inflammation on all animals prior to injection to serve as a baseline for enrollment into the study as well as on specific study days. Animals were not tranquilized for the examinations.
At least 1.0 mL of whole blood was drawn from the marginal ear vein or cardiac puncture (terminal bleed only) into K2EDTA tubes for plasma collection. After collection, the tubes were gently mixed by inverting the tubes 5-8 times. Blood samples were stored on wet ice prior to plasma processing. The samples were centrifuged at 4° C. for 10 minutes at 2000 g in a swinging bucket refrigerated centrifuge. Within 20 minutes of the blood collection time, the clear plasma was transferred to prelabelled polypropylene tubes, snap frozen, and stored frozen at approximately −80° C.
Following euthanasia, eyes were enucleated and marked at the 12:00 position. Aqueous humor was removed via a 27 or 30 gauge syringe following a 10-15 second rinse with PBS and blot with Kimwipe, and snap frozen by immersing in liquid nitrogen. The whole globe was then snap frozen in liquid nitrogen and stored at −80° C. to be held for potential dissection. All samples were placed into individual vials and weighed. The plasma and aqueous humor were collected.
The peptides were evaluated for their ocular tolerability and pharmacokinetics following repeated (QID×4 days) topical instillation or a single subconjunctival injection in rabbits. The study examined penetration into the anterior chamber and concentrations in the plasma by measuring at a single time point.

[4] = 5 mg/ml solution, 35 L per eye, Group 1 (single dose), topical 5 mg/ml, OD, Mean, read-out: K173 Concentrations (ng/mL) in Rabbit Aqueous Humor OD Sample, Mean
[5] = 5 mg/ml solution, 35 L per eye, Group 1 (single dose), topical 5 mg/ml, OS, Mean, read-out: K173 Concentrations (ng/mL) in Rabbit Aqueous Humor OS Sample, Mean
[6] = 5 mg/ml solution, 35 L per eye, Group 2 (4 doses), topical 5 mg/ml, OD, Mean, read-out: K173 Concentrations (ng/mL) in Rabbit Aqueous Humor OD Sample, Mean
[7] = 5 mg/ml solution, 35 L per eye, Group 2 (4 doses), topical 5 mg/ml, OS, Mean, read-out: K173 Concentrations (ng/mL) in Rabbit Aqueous Humor OS Sample, Mean
[8] = 5 mg/ml solution, 35 L per eye, Group 3 (8 BID doses), topical 5 mg/ml, OD, Mean, read-out: K173 Concentrations (ng/mL) in Rabbit Aqueous Humor OD Sample, Mean
[9] = 5 mg/ml solution, 35 L per eye, Group 3 (8 BID doses), topical 5 mg/ml, OS, Mean, read-out: K173 Concentrations (ng/mL) in Rabbit Aqueous Humor OS Sample, Mean
[10] = 5 mg/ml, Group 1 (single dose), topical 5 mg/ml, OD, Mean, read-out: K173 Concentrations (ng/mL) in Rabbit Aqueous Humor OD Sample, Mean
[11] = 5 mg/ml, Group 1 (single dose), topical 5 mg/ml, OS, Mean, read-out: K173 Concentrations (ng/mL) in Rabbit Aqueous Humor OS Sample, Mean
[12] = 5 mg/ml, Group 1 (single dose), topical 5 mg/ml, OS, individual animals, read-out: K173 Concentrations (ng/mL) in Rabbit Aqueous Humor OS Sample
[13] = 5 mg/ml, Group 2 (4 doses), topical 5 mg/ml, OD, Mean, read-out: K173 Concentrations (ng/mL) in Rabbit Aqueous Humor OD Sample, Mean
[14] = 5 mg/ml, Group 2 (4 doses), topical 5 mg/ml, OS, Mean, read-out: K173 Concentrations (ng/mL) in Rabbit Aqueous Humor OS Sample, Mean
[15] = 5 mg/ml, Group 2 (4 doses), topical 5 mg/ml, OD, individual animals, read-out: K173 Concentrations (ng/mL) in Rabbit Aqueous Humor OD Sample
[16] = 5 mg/ml, Group 3 (8 BID doses), topical 5 mg/ml, OD, Mean, read-out: K173 Concentrations (ng/mL) in Rabbit Aqueous Humor OD Sample, Mean
[17] = 5 mg/ml, Group 3 (8 BID doses), topical 5 mg/ml, OS, Mean, read-out: K173 Concentrations (ng/mL) in Rabbit Aqueous Humor OS Sample, Mean

CCCC[C@H](NC(=O)c1cc(O)cc(O)c1)C(=O)N[C@H]1CCCCn2cc(nn2)C[C@@H](C(N)=O)NC(=O)[C@H](Cc2c[nH]c3ccccc23)NC(=O)[C@H](CCCNC(=N)N)NC(=O)[C@@H](Cc2ccc(F)cc2)NC(=O)[C@H](Cc2c[nH]cn2)NC1=O [KR-072, HyBA-Nle-[Lys(N3)-His-Dphe(4-F)-Arg-Trp-Pra]-NH2] ({Benzoyl(3,5-(OH)2)}-[Nle][Lys(N3)]H[dPhe(4-F)]RW[Pra]-NH2; triazole 2-7)
EC50 (human recombinant MC1R): 0.0019 nM | IC50 (human recombinant MC1R; cAMP functional assay): 1.9 pM | level at 0.5 h [1, 4]: 8.44 ng/mL | level at 0.5 h [1, 5]: 1.36 ng/mL | level at 1 h [1, 4]: 1.13 ng/mL | level at 1 h [1, 5]: 5.22 ng/mL | level at 0.5 h [1, 6]: 1.9 ng/mL | level at 0.5 h [1, 7]: 3.47 ng/mL | level at 1 h [1, 6]: 2.75 ng/mL | level at 1 h [1, 7]: 2.49 ng/mL | level at 2 h [1, 8]: 10.5 ng/mL | level at 2 h [1, 9]: 12.1 ng/mL | level at 4 h [1, 8]: 11.6 ng/mL | level at 4 h [1, 9]: 7.33 ng/mL | level at 8 h [1, 8]: 5.92 ng/mL | level at 8 h [1, 9]: 6.42 ng/mL | level at 24 h [1, 8]: 3.79 ng/mL | level at 24 h [1, 9]: 4.45 ng/mL | level at 2 h [1, 10]: 3.58 ng/mL | level at 2 h [1, 11]: 1.89 ng/mL | level at 4 h [1, 10]: 2.68 ng/mL | level at 4 h ([1]; 5 mg/ml, Group 1 (single dose), topical 5 mg/ml, OD, individual animals, read-out: K173 Concentrations (ng/mL) in Rabbit Aqueous Humor OD Sample): 2.94 ng/mL | level at 4 h [1, 11]: 3.35 ng/mL | level at 4 h [1, 12]: 3.56 ng/mL | level at 8 h [1, 10]: 5.77 ng/mL | level at 8 h [1, 11]: 4.2 ng/mL | level at 8 h [1, 12]: 3.34 ng/mL | level at 24 h [1, 10]: 3.22 ng/mL | level at 24 h [1, 11]: 2.46 ng/mL | level at 24 h [1, 12]: 2.34 ng/mL | level at 2 h [1, 13]: 5.76 ng/mL | level at 2 h [1, 14]: 7.84 ng/mL | level at 4 h [1, 13]: 4.61 ng/mL | level at 4 h [1, 14]: 3.86 ng/mL | level at 8 h [1, 13]: 10.9 ng/mL | level at 8 h [1, 15]: 11.3 ng/mL | level at 8 h [1, 14]: 14.8 ng/mL | level at 24 h [1, 13]: 1.98 ng/mL | level at 24 h [1, 15]: 2.34 ng/mL | level at 24 h [1, 14]: 2.33 ng/mL | level at 24 h ([1]; 5 mg/ml, Group 2 (4 doses), topical 5 mg/ml, OS, individual animals, read-out: K173 Concentrations (ng/mL) in Rabbit Aqueous Humor OS Sample): 2.3 ng/mL | level at 0.5 h [1, 16]: 10.3 ng/mL | level at 0.5 h [1, 17]: 8.11 ng/mL | level at 1 h [1, 16]: 5 ng/mL | level at 1 h ([1]; 5 mg/ml, Group 3 (8 BID doses), topical 5 mg/ml, OD, individual animals, read-out: K173 Concentrations (ng/mL) in Rabbit Aqueous Humor OD Sample): 5.13 ng/mL | level at 1 h [1, 17]: 6.56 ng/mL | level at 1 h ([1]; 5 mg/ml, Group 3 (8 BID doses), topical 5 mg/ml, OS, individual animals, read-out: K173 Concentrations (ng/mL) in Rabbit Aqueous Humor OS Sample): 7.48 ng/mL | Aqueous humor levels 24 hours after last dose ([1]; topical 5 mg/ml, all dose groups): measurable levels were detected after 24 hours in all dose groups | ocular surface retention and Tmax ([1]; topical, after a single dose): prolonged ocular surface retention and Tmax | corneal edema by stromal thickness measurements (OCT) ([2]; DWEK, topical 0.05, 0.1, 0.5 mg/mL QD vs vehicle): decrease corneal edema | wound healing / rate of wound closure (corneal flat mount analysis) ([2]; topical 0.1 mg/mL): enhanced wound healing | efficacy on corneal stromal thickness by OCT ([2]; two lowest treatment options 0.05 mg/mL or 0.1 mg/mL): Statistically significant efficacy | Topical Ocular Permeability (nM ± SEM) [3]: 15.5 ± 2.6 nM
